Test results from ChEMBL document CHEMBL5390204, “Persephacin Is a Broad-Spectrum Antifungal Aureobasidin Metabolite That Overcomes Intrinsic Resistance in Aspergillus fumigatus” (J Nat Prod, 2023).
≈ marks a conversion by molar mass, not a printed value. Calls of active or inactive are those of the source. The calls are words filed in the database; no cut-off is given here.

Tests used:
[1] = system: Candida albicans; experiment: Antifungal activity against fluconazole-resistant Candida albicans SC5314 infected in pig cornea assessed as suppression of fungal growth at 2 % administered post fungal infection measured after 4 days by microscopic analysis; assay type: functional, organism-based; conditions: time 4.0 day
[2] = system: Aspergillus fumigatus; experiment: Antifungal activity against Aspergillus fumigatus NRRL5109 infected in pig cornea assessed as suppression of fungal growth at 2 % administered post fungal infection measured after 4 days by microscopic analysis; assay type: functional, organism-based; conditions: time 4.0 day
[3] = system: Candida parapsilosis; experiment: Antifungal activity against Candida parapsilosis ATCC 22019 (Y-12969) assessed as reduction in fungal growth incubated for 48 hrs by microplate reader analysis; assay type: functional; conditions: Lodderomyces parapsilosis
[4] = system: Candida albicans; experiment: Antifungal activity against Candida albicans ATCC 10231 assessed as reduction in fungal growth incubated for 48 hrs by microplate reader analysis; assay type: functional
[5] = system: Candida albicans; experiment: Antifungal activity against Candida albicans SC5314 assessed as reduction in fungal growth incubated for 48 hrs by microplate reader analysis; assay type: functional
[6] = system: Pichia kudriavzevii; experiment: Antifungal activity against Candida krusei ATCC 6258 (Y-7179) assessed as reduction in fungal growth incubated for 48 hrs by microplate reader analysis; assay type: functional
[7] = system: Candida tropicalis; experiment: Antifungal activity against Candida tropicalis ATCC750 (Y-12699) assessed as reduction in fungal growth incubated for 48 hrs by microplate reader analysis; assay type: functional
[8] = system: Cryptococcus neoformans; experiment: Antifungal activity against Cryptococcus neoformans H99 assessed as reduction in fungal growth incubated for 48 hrs by microplate reader analysis; assay type: functional
[9] = system: Aspergillus fumigatus; experiment: Antifungal activity against Aspergillus fumigatus MYA 3627 assessed as reduction in fungal growth incubated for 48 hrs by microplate reader analysis; assay type: functional
[10] = system: Aspergillus fumigatus; experiment: Antifungal activity against Aspergillus fumigatus NRRL6113 assessed as reduction in fungal growth incubated for 48 hrs by microplate reader analysis; assay type: functional
[11] = system: Aspergillus fumigatus; experiment: Antifungal activity against Aspergillus fumigatus NRRL5109 assessed as reduction in fungal growth incubated for 48 hrs by microplate reader analysis; assay type: functional
[12] = system: Aspergillus flavus; experiment: Antifungal activity against Aspergillus flavus NRRL485 assessed as reduction in fungal growth incubated for 48 hrs by microplate reader analysis; assay type: functional
[13] = system: Aspergillus niger; experiment: Antifungal activity against Aspergillus niger FGSC A732 assessed as reduction in fungal growth incubated for 48 hrs by microplate reader analysis; assay type: functional
[14] = system: Aspergillus terreus; experiment: Antifungal activity against Aspergillus terreus 191A6 assessed as reduction in fungal growth incubated for 48 hrs by microplate reader analysis; assay type: functional
[15] = system: Curvularia lunata; experiment: Antifungal activity against Curvularia lunata NRRL6409 assessed as reduction in fungal growth incubated for 48 hrs by microplate reader analysis; assay type: functional
[16] = system: Rhizopus arrhizus; experiment: Antifungal activity against Rhizopus oryzae FGSC 9543 assessed as reduction in fungal growth incubated for 48 hrs by microplate reader analysis; assay type: functional
[17] = system: Mucor circinelloides; experiment: Antifungal activity against Mucor circinelloides 235C7 assessed as reduction in fungal growth incubated for 48 hrs by microplate reader analysis; assay type: functional
[18] = system: Fusarium solani; experiment: Antifungal activity against Fusarium solani 243G2 assessed as reduction in fungal growth incubated for 48 hrs by microplate reader analysis; assay type: functional
[19] = system: Paecilomyces lilacinus; experiment: Antifungal activity against Paecilomyces lilacinus 165E10 assessed as reduction in fungal growth incubated for 48 hrs by microplate reader analysis; assay type: functional; conditions: Purpureocillium lilacinum
[20] = system: Hamigera insecticola; experiment: Antifungal activity against Hamigera insecticola NRRL35442 assessed as reduction in fungal growth incubated for 48 hrs by microplate reader analysis; assay type: functional
[21] = system: Candida albicans; experiment: Antifungal activity against Candida albicans SC5314 assessed as reduction in fungal viability incubated for 48 hrs by microplate reader analysis; assay type: functional
[22] = system: Candida albicans; experiment: Antifungal activity against Candida albicans ATCC 10231 assessed as reduction in fungal viability incubated for 48 hrs by microplate reader analysis; assay type: functional
[23] = system: Candida parapsilosis; experiment: Antifungal activity against Candida parapsilosis ATCC 22019 (Y-12969) assessed as reduction in fungal viability incubated for 48 hrs by microplate reader analysis; assay type: functional
[24] = system: Candida tropicalis; experiment: Antifungal activity against Candida tropicalis ATCC750 (Y-12699) assessed as reduction in fungal viability incubated for 48 hrs by microplate reader analysis; assay type: functional
[25] = system: Pichia kudriavzevii; experiment: Antifungal activity against Candida krusei ATCC 6258 (Y-7179) assessed as reduction in fungal viability incubated for 48 hrs by microplate reader analysis; assay type: functional
[26] = system: Cryptococcus neoformans; experiment: Antifungal activity against Cryptococcus neoformans H99 assessed as reduction in fungal viability incubated for 48 hrs by microplate reader analysis; assay type: functional
[27] = system: Aspergillus fumigatus; experiment: Antifungal activity against Aspergillus fumigatus MYA 3627 assessed as reduction in fungal viability incubated for 48 hrs by microplate reader analysis; assay type: functional
[28] = system: Aspergillus fumigatus; experiment: Antifungal activity against Aspergillus fumigatus NRRL6113 assessed as reduction in fungal viability incubated for 48 hrs by microplate reader analysis; assay type: functional
[29] = system: Aspergillus fumigatus; experiment: Antifungal activity against Aspergillus fumigatus NRRL5109 assessed as reduction in fungal viability incubated for 48 hrs by microplate reader analysis; assay type: functional
[30] = system: Aspergillus flavus; experiment: Antifungal activity against Aspergillus flavus NRRL485 assessed as reduction in fungal viability incubated for 48 hrs by microplate reader analysis; assay type: functional
[31] = system: Aspergillus niger; experiment: Antifungal activity against Aspergillus niger FGSC A732 assessed as reduction in fungal viability incubated for 48 hrs by microplate reader analysis; assay type: functional
[32] = system: Aspergillus terreus; experiment: Antifungal activity against Aspergillus terreus 191A6 assessed as reduction in fungal viability incubated for 48 hrs by microplate reader analysis; assay type: functional
[33] = system: Curvularia lunata; experiment: Antifungal activity against Curvularia lunata NRRL6409 assessed as reduction in fungal viability incubated for 48 hrs by microplate reader analysis; assay type: functional
[34] = system: Rhizopus arrhizus; experiment: Antifungal activity against Rhizopus oryzae FGSC 9543 assessed as reduction in fungal viability incubated for 48 hrs by microplate reader analysis; assay type: functional
[35] = system: Mucor circinelloides; experiment: Antifungal activity against Mucor circinelloides 235C7 assessed as reduction in fungal viability incubated for 48 hrs by microplate reader analysis; assay type: functional
[36] = system: Fusarium solani; experiment: Antifungal activity against Fusarium solani 243G2 assessed as reduction in fungal viability incubated for 48 hrs by microplate reader analysis; assay type: functional
[37] = system: Paecilomyces lilacinus; experiment: Antifungal activity against Paecilomyces lilacinus 165E10 assessed as reduction in fungal viability incubated for 48 hrs by microplate reader analysis; assay type: functional, Purpureocillium lilacinum
[38] = system: Hamigera insecticola; experiment: Antifungal activity against Hamigera insecticola NRRL35442 assessed as reduction in fungal viability incubated for 48 hrs by microplate reader analysis; assay type: functional

OC(Cn1cncn1)(Cn1cncn1)c1ccc(F)cc1F
Activity [1]: inactive
Activity [2]: inactive

CCC(C)n1ncn(-c2ccc(N3CCN(c4ccc(OCC5COC(Cn6cncn6)(c6ccc(Cl)cc6Cl)O5)cc4)CC3)cc2)c1=O (stereo unspecified) [ITRACONAZOLE]
MFC [3]: 5 µM (≈ 3.53 µg/mL)
MIC80 [3]: 0.6 µM (≈ 0.423 µg/mL)
MFC [4]: > 10 µM
MIC80 [4]: 0.06 µM (≈ 0.0423 µg/mL)
MFC [5]: > 10 µM
MIC80 [5]: 0.135 µM (≈ 0.0953 µg/mL)
MFC [6]: 2.5 µM (≈ 1.76 µg/mL)
MIC80 [6]: 0.6 µM (≈ 0.423 µg/mL)
MFC [7]: > 10 µM
MIC80 [7]: 0.6 µM (≈ 0.423 µg/mL)
MFC [8]: > 10 µM
MIC80 [8]: 0.6 µM (≈ 0.423 µg/mL)
MFC [9]: > 10 µM
MIC80 [9]: 5 µM (≈ 3.53 µg/mL)
MFC [10]: > 10 µM
MIC80 [10]: 1.3 µM (≈ 0.917 µg/mL)
MFC [11]: 10 µM (≈ 7.06 µg/mL)
MIC80 [11]: 1.3 µM (≈ 0.917 µg/mL)
MFC [12]: 0.6 µM (≈ 0.423 µg/mL)
MIC80 [12]: 0.2 µM (≈ 0.141 µg/mL)
MFC [13]: 5 µM (≈ 3.53 µg/mL)
MIC80 [13]: 2.5 µM (≈ 1.76 µg/mL)
MFC [14]: 2.5 µM (≈ 1.76 µg/mL)
MIC80 [14]: 0.6 µM (≈ 0.423 µg/mL)
MFC [15]: 5 µM (≈ 3.53 µg/mL)
MIC80 [15]: 2.5 µM (≈ 1.76 µg/mL)
MFC [16]: 0.6 µM (≈ 0.423 µg/mL)
MIC80 [16]: 0.6 µM (≈ 0.423 µg/mL)
MFC [17]: > 10 µM
MIC80 [17]: 10 µM (≈ 7.06 µg/mL)
MFC [18]: 5 µM (≈ 3.53 µg/mL)
MIC80 [18]: 2.5 µM (≈ 1.76 µg/mL)
MFC [19]: 1.3 µM (≈ 0.917 µg/mL)
MIC80 [19]: 2.5 µM (≈ 1.76 µg/mL)
MFC [20]: 1.35 µM (≈ 0.953 µg/mL)
MIC80 [20]: 0.3 µM (≈ 0.212 µg/mL)
MFC<=99.9 [21]: >10 µM
MFC<=99.9 [22]: >10 µM
MFC<=99.9 [23]: 5 µM (≈ 3.53 µg/mL)
MFC<=99.9 [24]: >10 µM
MFC<=99.9 [25]: 2.5 µM (≈ 1.76 µg/mL)
MFC<=99.9 [26]: >10 µM
MFC<=99.9 [27]: >10 µM
MFC<=99.9 [28]: >10 µM
MFC<=99.9 [29]: 10 µM (≈ 7.06 µg/mL)
MFC<=99.9 [30]: 0.6 µM (≈ 0.423 µg/mL)
MFC<=99.9 [31]: 5 µM (≈ 3.53 µg/mL)
MFC<=99.9 [32]: 2.5 µM (≈ 1.76 µg/mL)
MFC<=99.9 [33]: 5 µM (≈ 3.53 µg/mL)
MFC<=99.9 [34]: 0.6 µM (≈ 0.423 µg/mL)
MFC<=99.9 [35]: >10 µM
MFC<=99.9 [36]: 5 µM (≈ 3.53 µg/mL)
MFC<=99.9 [37]: 1.3 µM (≈ 0.917 µg/mL)
MFC<=99.9 [38]: 1.35 µM (≈ 0.953 µg/mL)
